# Test results reported in patent US20110008466A1, “METHODS AND COMPOSITIONS FOR ALTERING CELL FUNCTION” (ALLTECH, INC., priority 2006, published 2011).
# What was measured:
# Gadd45b [1] = test: Microarray gene expression, mouse cerebral cortex; format: in vivo, mice; conditions: minus = down; for Fold change Gadd45b gene expression, ctx (Table 14): cortex tissue, vs Se-deficient
# Text: (§1) Animal Care. Male C57BL/6J mice were housed singly and started on the experimental diets described below immediately after weaning (21 days of age). The mice were maintained in the Shared Aging Rodent Facility at the William S. Middleton Memorial Veterans Administration Medical Center (Madison, Wis.). Temperature and humidity were maintained at constant levels. Room light was controlled to provide 12-hr cycles of light and dark.
# (§2) Experimental diets were created by Harlan Teklad (Madison, Wis.). Selenium content of the diets was determined by Covance Inc. (Madison, Wis.). Five (5) animals were included in each of the following treatment groups: a diet deficient in selenium (SD); a diet supplemented with selenomethionine (SM, obtained from Sigma, St. Louis, Mo.) such that the final selenium content of the diet was one (1) part per million; a diet supplemented with sodium selenite (SS, Sigma) such that the final concentration of selenium in this diet was one (1) part per million; or a diet supplemented with the yeast selenium SEL-PLEX (SP, Alltech, Lexington, Ky.), such that the final concentration of selenium in this diet was one (1) part per million. SEL-PLEX. Mice were provided with water and their respective diet ad libitum for 100 days. Diets were stored at the dark at 4° C. and fresh diet was added to feeder twice weekly.
# (§3) Tissue sample preparation and microarray analysis. Mice were killed at 100 days of age by cervical dislocation. For intestinal expression studies, the intestine was flushed twice with saline solution and small intestine was measured and divided in three equal segments. A 3-cm region of the middle segment of the small intestine corresponding to the jejunum (˜300 mg of tissue) was cut and rinsed again with physiological saline to completely remove contents, flash frozen in liquid nitrogen and stored at −80° C. For brain (e.g., cerebral cortex) studies, the cerebral cortex was separated from the surrounding brain tissue and was flash frozen in liquid nitrogen and stored at −80° C.
# (§4) Total RNA was isolated from using the guanidinium isothiocyanate method of TRIZOL (Life Technologies, Grand Island, N.Y.) and individual samples were used for gene expression profiles. Total RNA was cleaned up by RNeasy Mini kit (Qiagen, Valencia, Calif.). Target RNA was prepared by converting […] total RNA into double-strand cDNA using GeneChip Expression 3′-Amplification Reagents One-Cycle cDNA Synthesis Kit (Affymetrix, Santa Clara, Calif.) with a T7-(dT)24 primer incorporating a T7 RNA polymerase promoter. After cleaning up double-strand cDNA using Genechip Sample Cleanup Module (Affymetrix, Santa Clara, Calif.), biotin-labeled cRNA was synthesized from double-strand cDNA using GeneChip Expression 3′-Amplification Reagents for IVT Labeling (Affymetrix, Santa Clara, Calif.). The biotin-labeled cRNA was cleaned up using Genechip Sample Cleanup Module and was fragmented by heating (35 min at 94° C.).
# (§5) Fifteen (15) μg of cRNA fragments were hybridized (16 h at 45° C.) to Mouse Genome 430 2.0 Array (Affymetrix, Santa Clara, Calif.) using GeneChip Hybridization Oven 640. After hybridization, the gene chips were automatically washed and stained with streptavidin-phycoerythrin biotinylated anti-streptavidin using Affymetrix GeneChip Fluidics Station 450. The DNA chips were scanned with Affymetrix GeneChip Scanner 3000 (Affymetrix, Santa Clara, Calif.) to detect the cell signal intensities by laser. All calculations were performed with Affymetrix GeneChip Operating Software (GCOS) version 1.3 after scanning
# (§6) • 1. The spreadsheet containing probe set identifiers and signal intensity values was opened in Microsoft Excel (version 11.1.1 for the Macintosh OS-X operating system) and summary statistics were generated (mean signal intensity for each treatment group, standard error of the mean). Two-tailed t-tests (equal variance) were performed for the following treatment groups: SM vs. SD, SS vs. SD, and SP vs. SD. […]
# CORS-26 = test: Microarray gene expression, mouse cerebral cortex; format: in vivo, mice; conditions: Example 10 (brain); vs Se-deficient diet
# Text: as §1, §2, §3, §4, §5, §6
# Gadd45b [2] = test: Gene expression, skeletal muscle tissue; format: in vivo, mice; conditions: vs Se-deficient, minus = down
# Text: as §1
# as §2, with “Diets were stored at the dark at 4° C. and fresh diet was added to feeder twice weekly.” left out
# (§7) • 1. […] Additionally, a “signal intensity score” was calculated for each probe set as the sum of the signal intensities for all chips (N=20). • 2. […]
# Gadd45b [3] = test: Gene expression, liver tissue; format: in vivo, mice; conditions: vs Se-deficient, minus = down
# Text: as §1
# as §2, with “Diets were stored at the dark at 4° C. and fresh diet was added to feeder twice weekly.” left out
# as §7
# [4] = test system: complement component genes; test: Microarray gene expression, mouse cerebral cortex (summary of Table 6); format: in vivo, mice; conditions: p<0.01
# Text: as §1
# as §2, with “Mice were provided with water and their respective diet ad libitum for 100 days. Diets were stored at the dark at 4° C. and fresh diet was added to feeder twice weekly.” left out
# (§8) Tissue sample preparation and microarray analysis. […] For intestinal expression studies, the intestine was flushed twice with saline solution and small intestine was measured and divided in three equal segments. […]
# [5] = test system: cyclin-dependent kinase 5 (Cdk-5); test: Microarray gene expression, tau kinases, brain; format: in vivo, mice; conditions: vs non-selenium supplemented diet, minus = down, * significant
# Text: as §1, §2, §3
# (§9) Total RNA was isolated from using the guanidinium isothiocyanate method of TRIZOL (Life Technologies, Grand Island, N.Y.) and individual samples were used for gene expression profiles. Total RNA was cleaned up by RNeasy Mini kit (Qiagen, Valencia, Calif.). Target RNA was prepared by converting […] total RNA into double-strand cDNA using GeneChip Expression 3′-Amplification Reagents One-Cycle cDNA Synthesis Kit (Affymetrix, Santa Clara, Calif.) with a T7-(dT)24 primer incorporating a T7 RNA polymerase promoter. […]
# [6] = test system: glycogen synthase kinase-3-beta (GSK-3β); test: Microarray gene expression, tau kinases, brain; format: in vivo, mice; conditions: vs non-selenium supplemented diet, minus = down, * significant
# Text: as §1, §2, §3, §9
# GST genes = test: Microarray gene expression, mouse intestine (summary of Table 3); format: in vivo, mice; conditions: vs Se-deficient diet
# Text: as §1
# as §2, with “Mice were provided with water and their respective diet ad libitum for 100 days. Diets were stored at the dark at 4° C. and fresh diet was added to feeder twice weekly.” left out
# as §8
# selenoprotein N1 (Sepn1) = test: Microarray gene expression, mouse intestine; format: in vivo, mice; conditions: 1 ppm Se diet 100 days vs Se-deficient diet, p<0.02
# Text: as §1, §2, §3, §4, §5, §6
# Gadd45g1p = test: Microarray gene expression, mouse intestine; format: in vivo, mice; conditions: p<0.05
# Text: as §1, §2, §3, §4, §5, §6
# [7] = test system: Growth arrest and DNA-damage-inducible 45 gamma (Gadd45g); test: Microarray gene expression, mouse intestine; format: in vivo, mice; conditions: vs Se-deficient diet, minus = down
# Text: as §1, §2, §3, §4, §5, §6
# [8] = test system: Type 1 iodothyronine deiodinase; test: Microarray gene expression, mouse intestine; format: in vivo, mice; conditions: 1 ppm Se diet 100 days vs Se-deficient diet
# Text: as §1, §2, §3, §4, §5, §6
# [9] = test system: sprouty homolog 2 gene (Spry2); test: Microarray gene expression, mouse intestine; format: in vivo, mice; conditions: relative to Se-deficient controls
# Text: as §1, §2, §3, §4, §5, §6
# [10] = test system: LIM homeobox protein 8 gene (Lhx8); test: Microarray gene expression, mouse intestine; format: in vivo, mice; conditions: vs Se-deficient subjects, p<0.01
# Text: as §1, §2, §3, §4, §5, §6
# Neurogenin 3 (Neurog3) = test: Microarray gene expression, mouse intestine; format: in vivo, mice; conditions: vs Se-deficient diet
# Text: as §1, §2, §3, §4, §5, §6
# Glyoxalase 1 (Glo1) = test: Microarray gene expression, mouse intestine; format: in vivo, mice; conditions: 1 ppm Se diet 100 days vs Se-deficient diet, p<0.01
# Text: as §1, §2, §3, §4, §5, §6
# Prohibitin (Phb) = test: Microarray gene expression, mouse intestine; format: in vivo, mice; conditions: vs Se-deficient diet, p<0.05
# Text: as §1, §2, §3, §4, §5, §6
# [11] = test system: transforming growth factor beta 2 (TGF-β2); test: Microarray gene expression, mouse intestine; format: in vivo, mice; conditions: vs controls
# Text: as §1, §2, §3, §4, §5, §6
# SelR (Selenoprotein X1) = test: Microarray gene expression, mouse intestine; format: in vivo, mice; conditions: 1 ppm Se diet 100 days vs Se-deficient diet
# Text: as §1, §2, §3, §4, §5, §6
# [12] = test system: type II iodothyronine deiodinase (Dio2); test: Microarray gene expression, mouse intestine; format: in vivo, mice; conditions: 1 ppm Se diet 100 days vs Se-deficient diet
# Text: as §1, §2, §3, §4, §5, §6
# Selenoprotein W (SelW) = test: Microarray gene expression, mouse intestine; format: in vivo, mice; conditions: 1 ppm Se diet 100 days vs Se-deficient diet
# Text: as §1, §2, §3, §4, §5, §6
# [13] = test system: Growth arrest and DNA-damage-inducible 45 beta (Gadd45b); test: Microarray gene expression, mouse intestine; format: in vivo, mice; conditions: intestinal tissue; vs Se-deficient; minus = down
# Text: as §1, §2, §3, §4, §5, §6
# [14] = test system: Gadd45g1p (Growth arrest and DNA-damage inducible 45 gamma interacting protein); test: Microarray gene expression, mouse cerebral cortex; format: in vivo, mice; conditions: brain; minus = down; * significant relative to Se-deficient animals
# Text: as §1, §2, §3, §4, §5, §6
# [15] = test system: Complement component 1, q subcomponent binding protein, C1qbp; test: Microarray gene expression, mouse cerebral cortex; format: in vivo, mice; conditions: vs Se-deficient diet, minus = down, * = significant p<0.01
# Text: as §1, §2, §3, §4, §5, §6
# [16] = test system: Complement component 1, q subcomponent, beta polypeptide, C1qbp; test: Microarray gene expression, mouse cerebral cortex; format: in vivo, mice; conditions: vs Se-deficient diet, minus = down, * = significant p<0.01
# Text: as §1, §2, §3, §4, §5, §6
# calpain-5 = test: Expression level of calpain genes after selenium administration; format: in vivo; conditions: tissue not stated; minus = down; asterisk not explained
# Description: Compositions and methods of the present invention were analyzed to determine if they were capable of altering the expression levels of calpain genes. Compositions comprising various forms of selenium (e.g., SeM, Sod-sel, and SEL-PLEX) were administered to subjects and the expression levels of calpain genes monitored. The expression level of calpain-5 was altered by treatment in the following ways: free selenomethionine (SM)+1.32*, Sod-sel −1.07, SEL-PLEX −1.44*.
# [17] = test system: Cu chaperone for SOD (CCS); test: Microarray gene expression, mouse intestine; format: in vivo, mice; conditions: 1 ppm Se diet 100 days vs Se-deficient diet
# Text: as §1, §2, §3, §4, §5, §6
# SOD1 = test: Microarray gene expression, mouse intestine; format: in vivo, mice; conditions: 1 ppm Se diet 100 days vs Se-deficient diet
# Text: as §1, §2, §3, §4, §5, §6
# Thioredoxin Reductase 1 = test: Microarray gene expression, mouse intestine; format: in vivo, mice; conditions: 1 ppm Se diet 100 days vs Se-deficient diet, all p <0.01
# Text: as §1, §2, §3, §4, §5, §6
smiles,measurement,setting,value
"C[Se]CC[C@H](N)C(=O)O [SeM, selenomethionine]","Fold change Gadd45b gene expression, ctx (Table 14)",Gadd45b [1]; listed as Selenomethionine,−1.26 fold
same,"Fold change Gadd45b gene expression, ctx (Table 14)",Gadd45b [1]; listed as selenomethionine,significant reduction
same,fold reduction in expression of CORS-26,CORS-26,no alteration
same,"Fold change Gadd45b gene expression, skm (Table 14)",Gadd45b [2],1.02 fold
same,"Fold change Gadd45b gene expression, liv (Table 14)",Gadd45b [3],1.24 fold
same,down-regulation of complement component genes (summary in words),[4],did not provide a statistically significant alteration
same,FC CdK5 gene expression,[5]; listed as SM,−1.00 fold
same,FC GsKβ3 (GSK-3β) gene expression,[6]; listed as SM,−1.10 fold
same,alteration of expression pattern of GST genes (summary in words),GST genes,no alteration
same,fold increase of selenoprotein N1 (Sepn1) gene expression,selenoprotein N1 (Sepn1),not significantly affected
same,expression of Gadd45g1p in intestinal tissue,Gadd45g1p,decreased expression
same,FC Gadd45g expression (Table 2),[7],−1.5 (p < 0.05) fold
same,fold increase in expression of Type 1 iodothyronine deiodinase,[8],2.0 fold
same,fold reduction in Spry2 gene expression,[9],no alteration
same,fold upregulation of Lhx8 expression,[10],not significantly different
same,fold upregulation of Neurog3 expression,Neurogenin 3 (Neurog3),no significant alteration
same,fold reduction of Glo1 expression,Glyoxalase 1 (Glo1),not significantly affected
same,fold upregulation of Prohibitin (Phb) expression,Prohibitin (Phb),1.6 fold
same,fold upregulation of TGF-β2 expression,[11],not altered
same,fold upregulation of SelR gene,SelR (Selenoprotein X1),not significantly affected
same,fold down-regulation of Dio2 expression,[12],no ability to alter
same,fold upregulation of Selenoprotein W (SelW) expression,Selenoprotein W (SelW),not significantly altered
same,"Fold change Gadd45b gene expression, int (Table 14)",[13],−1.07 fold
"O=[Se](O)O [Sod-sel, sodium selenite]",FC Gadd45b expression (Table 11),"Gadd45b [1]; brain, * significant relative to Se-deficient animals",−1.39* fold
same,"Fold change Gadd45b gene expression, ctx (Table 14)",Gadd45b [1],−1.33 fold
same,FC Gadd45g1p expression (Table 11),[14],−1.12 fold
same,FC C1qbp (C1q binding protein) expression,[15],1.11 fold
same,FC C1q beta polypeptide (printed C1qbp) expression,[16],−1.35 fold
same,"Fold change Gadd45b gene expression, skm (Table 14)",Gadd45b [2],−2.42 fold
same,"Fold change Gadd45b gene expression, liv (Table 14)",Gadd45b [3],1.25 fold
same,expression level of calpain-5 altered by treatment,calpain-5,−1.07
same,FC CdK5 gene expression,[5]; listed as SS,−1.13 fold
same,FC GsKβ3 (GSK-3β) gene expression,[6]; listed as SS,−1.63* fold
same,FC Gadd45g expression (Table 2),[7],−2.0 (p < 0.01) fold
same,fold enhancement in expression of Cu chaperone for SOD (CCS),[17],1.28 fold
same,fold increase in expression of Type 1 iodothyronine deiodinase,[8],2.8 fold
same,fold enhanced expression of SOD1,SOD1,1.92 fold
same,fold increase in expression of the Thioredoxin Reductase 1 gene,Thioredoxin Reductase 1,1.7 fold
same,fold upregulation of SelR gene,SelR (Selenoprotein X1),1.3 fold
same,fold upregulation of Selenoprotein W (SelW) expression,Selenoprotein W (SelW),5.1 fold
same,"Fold change Gadd45b gene expression, int (Table 14)",[13],1.08 fold
